Results published in ChEMBL document CHEMBL3872236, “Discovery of 2-((2-chloro-6-fluorophenyl)amino)-N-(3-fluoro-5-(trifluoromethyl)phenyl)-1-methyl-7,8-dihydro-1H-[1,4]dioxino[2',3':3,4]benzo[1,2-d]imidazole-5-carboxamide as potent, selective and efficacious microsomal prostaglandin E2 synthase-1 (mPGES-1) inhibitor” (Bioorg Med Chem Lett, 2016).

Experiments:
[1] = in vitro; conditions: rat, liver microsomes
[2] = in vitro; conditions: human, liver microsomes
[3] = in vitro; conditions: guinea pig, liver microsomes

## O=C(Nc1cc(F)cc(C(F)(F)F)c1)c1cc2nc(Nc3c(F)cccc3Cl)[nH]c2c2c1OCCO2
[1]
  remaining at 1 h, 1 µM: 93.8%
[2]
  remaining at 1 h, 1 µM: 98.2%
[3]
  remaining at 1 h, 1 µM: 95.8%
